This note sets out measurements from patent US8193225B2, “Isoxazole amides, derivatives and methods of chemical induction of neurogenesis” (priority 2006, dated 2012).

“Also recorded” adds a separate entry of the source.

Experiment [1] relates to neuroD-luciferase. As to the kind of experiment: neuroD-luciferase reporter gene assay in HCN cells. The experiment is classed as cell-based, rat. The settings on record: HCN cells. In general terms: A reporter such as luciferase makes a cellular process visible.
The test system of experiment [2] is gluR2-luc. In words: gluR2-luciferase reporter gene assay in HCN cells. The experiment is classed as cell-based, rat.
In experiment [3] the test system is MEF2 reporter gene (3XMRE-luc). In words: MEF2 reporter gene (3XMRE-luc) assay in HCN cells. The settings on record: HCN cells/NPCs, versus vehicle. The experiment is classed as cell-based, rat.
Experiment [4] has as its system HCN cells. In words: glial (astrocyte, oligodendrocyte) differentiation of HCN cells/NPCs. The experiment is classed as cell-based, rat. The settings on record: 4 d cultures.
Experiment [5] relates to HCN cells. In words: RT-PCR and protein blotting of gene expression in HCN cells. The experiment is classed as cell-based, rat.
Experiment [6] deals with HDAC5. As to the kind of experiment: protein blotting of phospho-HDAC5, HDAC4 and phospho-CaMKII in HCN cells. The experiment is classed as cell-based, rat. The settings on record: Isx/Isx-9-treated HCNs, 1-2 d.
Experiment [7] deals with adult mouse whole brain (MWB) neural progenitor cells. As to the kind of experiment: neuronal differentiation of adult mouse whole brain (MWB) neural progenitor cells. The experiment is classed as cell-based. The settings on record: 4 d cultures. As to the method: Neural stem cell culture, in vitro differentiation, and CaMK inhibitor studies. The hippocampal neural stem/progenitor (NSC) line used in this study (HCN cells) were originally isolated from adult (8-10 wks old) female Fisher 344 rats and have been characterized previously (Gage et al., 1995; Palmer et al., 1997). HCN cells were cultured in DMEM:F12 (Omega Scientific) with N2 supplement (Invitrogen) and basic fibroblast growth factor (20 ng/ml FGF-2) (PeproTech). The mouse whole brain neural stem/progenitors (MWB) were derived from adult (8-10 wks old) C57BL/6 mice that have been characterized previously (Ray and Gage, 2006). The P19CL6 cells is a sub-line of P19EC cells, originally generated by the late Dr. Habara-Ohkubo (Habara-Ohkubo, 1996), were grown in MEM-α (Invitrogen) containing 10% fetal bovine serum (Omega). HCN cells or MWB neural progenitors were trypsinized and plated into N2 medium (Invitrogen) containing FGF-2 (HCN cells) or FGF-2/EGF/heparin (MWB) overnight, and switched to fresh N2 medium without FGF-2 and Isx-9 (20 μM for HCN cells and 5 μM for MWB) was added for 4 d. To test if Isx-9 could block competing astrocyte or oligodendrocyte differentiation, standard gliogenic conditions were used as described previously (Hsieh et al., 2004). […]

In experiment [8] the test system is human CD133(+) brain tumor stem cells (BTSCs). As to the kind of experiment: differentiation of CD133+ brain tumor stem cells (BTSCs). The experiment is classed as cell-based. The settings on record: 20 μM, within 4 days. On the procedure:
(§1) CD133+ glioblastoma brain tumor stem cells (BTSCs) from an explanted human tumor specimen were treated with 20 μM Isx-9 (FIG. 9C) or vol/vol DMSO (vehicle) control (FIG. 9B).

The subject of experiment [9] is NeuroD-luciferase. In words: NeuroD-luciferase reporter in BTSCs. The settings on record: after 24 hours, compared to vehicle. The experiment is classed as cell-based, human. On the procedure:
as §1

In experiment [10] the test system is NMDA receptor 1-(NR1) luciferase. In words: NMDA receptor 1 (NR1)-luciferase reporter in BTSCs. The experiment is classed as cell-based, human. The settings on record: after 24 hours, compared to vehicle. As to the method:
as §1

The test system of experiment [11] is human CD133(+) brain tumor stem cells (BTSCs). As to the kind of experiment: RT-PCR and protein blotting of gene expression in BTSCs. The experiment is classed as cell-based. An excerpt:
FIGS. 9A-H—Isoxazoles specifically target the CD133(+) glioblastoma cancer stem cell to adopt a neuronal fate program. […] (FIG. 9B) BTSCs cultured with DMSO (vehicle) (1% vol./vol.). (FIG. 9D) Isx-9-treated BTSCs stained with neuronal markers Tuj1 (red) and Map2ab (green), Dapi-stained nuclei is blue. Scale bar=25 μm. […] (FIGS. 9G and 9H) RT-PCR and protein blotting analysis of gene expression in Isx-9-treated BTSCs. […] GAPDH is used as a normalization control.
This activity remained following addition of FGF/EGF without additional Isx-9 addition.

For experiment [12], the system named is RFP-labeled human CD133(+) BTSCs. In words: transplantation of pre-treated RFP-labeled BTSCs into striatum of NOD/scid mice. The experiment is classed as in vivo. On the procedure:
BTSC transplantation was performed by stereotactic surgery into the left striatum (coordinates from Bregma AP −0 mm, ML +2.5 mm, DV −3.5 mm) with a 33-gauge Hamilton syringe at a flow rate of 30,000 cells/10 minutes.

`O=C(NC1CC1)c1cc(-c2cccs2)on1` [Isx-9, N-cyclopropyl-5-(thiophen-2-yl)isoxazole-3-carboxamide]: the “increase in neuroD luciferase reporter” value in [1] was at least 8 fold. Moreover, in [2], the “increase in gluR2 luciferase reporter” value is recorded as at least 8 fold. The “activation of MEF2 reporter gene (3XMRE-luc) / MEF2 promoter” value in experiment [3] is given as “Dose-dependent activation”. The “gliogenesis / glial differentiation” value in experiment [4] was “dominantly blocks gliogenesis”. In [5] (2- and 4-days, compared to vehicle), the “MEF2 mRNA levels” value is reported as “up-regulated”. Moreover, the “expression of SOX2” value in experiment [5] (HCN cells) is reported as “decreased expression”. Besides, the “neuronal protein expression (protein blotting)” value in [5] (HCN cells/NPCs) is “increased Tuj1 protein”. Further, the “MEF2A and MEF2C protein levels” value in experiment [5] (protein blotting time-course, up to 64 hours) is “unchanged”. Moreover, in [6], the “HDAC5 phosphorylation / cytoplasmic phospho-HDAC5” value is on record as “Increased HDAC5 phosphorylation over time; also recorded: Accumulation of phospho-HDAC5 in the cytoplasm; also recorded: cytoplasmic enrichment of phospho-HDAC5”. In addition, the “neuronal differentiation of MWB neural progenitors” value in experiment [7] is “promotes neuronal differentiation”. Besides, the “neuronal differentiation of BTSCs” value in experiment [8] is “triggers a pro neuronal-differentiation effect; also recorded: leads to more differentiated (adherent and phase-dark with neuronal-like processes) cells”. In addition, in [9], the “activation of NeuroD-luciferase in BTSCs” value is reported as “Dose-dependent activation”. Also, the “activation of NR1-luciferase in BTSCs” value in experiment [10] is “Dose-dependent activation”. In experiment [11], the “CD133 expression in BTSCs” value was “downregulated”; the “HDAC-4 and -5 protein in BTSCs” value is “remain relatively unchanged”; the “NRSF expression in BTSCs” value is “downregulated”. Also, the “NeuroD expression in BTSCs” value in [11] (2 days) is given as “Up-regulation of NeuroD”. The “overall levels of neuronal proteins (βTujIII, GluR2) in BTSCs” value in experiment [11] (versus control) was “do not significantly differ”. In addition, the “tumor-initiating ability of BTSCs” value in experiment [12] (7-day exposure in vitro (20 μM) before transplantation) was “dramatically reduces tumor-initiating ability”. Moreover, the “number of RFP-labeled BTSCs in the striatum” value in [12] (after 1 month) was “significant reduced the number of RFP-labeled BTSCs in the striatum”.
